# Values joined by “and” are separate entries in the source; they are usually repeats but may differ in a detail not shown here. Identical values can stand only once. Active and inactive are the calls of the source.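 How the source made its calls: active means IC50 no higher than ten times the top tested dose; inconclusive means flat fit with 30 to 70% inhibition, or poor fit; inactive means IC50 above ten times the top dose.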
# System: Clostridium difficile clinical isolate growth, OD600, 24 h
# Assay: growth modulation of Clostridium difficile isolate – OD600, 9-point, retest, dose response (AID 1224920);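 further: inhibitors lower culture turbidity so OD600 falls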
row,Compound,IC50
1,Cc1ccccc1S(=O)(=O)N1CCCCN2[C@H](CO)[C@H](c3ccc(-c4cccc(F)c4)cc3)[C@H]2C1,11.3 µM
2,O=C(C1CCCCC1)N1C[C@@H]2N[C@H](C1)C2c1ccc(-c2ccccc2F)cc1 (stereo partly specified),55.9 µM
3,COc1ccc(C#Cc2ccc([C@@H]3[C@@H](CO)N4CCCCN(C(=O)Nc5cccc(F)c5)C[C@H]34)cc2)cc1,14.4 µM
4,C/C=C/c1ccc(C2[C@H]3CNC[C@@H]2N3Cc2cc(-c3ccccc3)on2)cc1 (stereo partly specified),32.7 µM
5,COc1ccccc1S(=O)(=O)N1C[C@@H]2N[C@H](C1)C2c1ccc(-c2cccc(C)c2)cc1 (stereo partly specified),53.5 µM
6,N#C[C@@H]1[C@@H](c2ccc(C#Cc3cccnc3)cc2)[C@@H](CO)N1C(=O)NC1CCCC1,> 240 µM (inactive)
7,O=C(Nc1cccc(F)c1)N1CCCCN2[C@H](CO)[C@@H](c3ccc(-c4ccccc4F)cc3)[C@H]2C1,29.7 µM
8,Cc1ccccc1-c1ccc(C2[C@@H]3CN(C(=O)Nc4ccc(F)cc4)C[C@H]2N3)cc1 (stereo partly specified),40.5 µM
9,CCCNC(=O)C[C@H]1CC[C@@H]2[C@H](COC[C@@H](O)CN2C(=O)Nc2ccc(Cl)c(Cl)c2)O1,20.9 µM
10,Cc1ccccc1-c1ccc(C2[C@@H]3CN(S(=O)(=O)Cc4ccccc4)C[C@H]2N3)cc1 (stereo partly specified),33.8 µM
11,COc1ccccc1NC(=O)N1CCCCN2[C@@H](CO)[C@@H](c3ccc(-c4ccc(C)cc4)cc3)[C@@H]2C1,28.7 µM
12,COc1cccc(-c2ccc3c(c2)[C@H]2[C@H](CCN2Cc2ccccc2OC)[C@H](CO)N3)c1,56.5 µM
13,CCNC(=O)C[C@@H]1CC[C@H]2[C@@H](COC[C@@H](O)CN2C(=O)Nc2ccc(C(F)(F)F)cc2)O1,12.2 µM
14,COc1cc(CN2C[C@@H]3N[C@H](C2)C3c2ccc(-c3cccc(OC)c3)cc2)cc(OC)c1 (stereo partly specified),13 µM and 14 µM
15,CCCC#Cc1ccc([C@H]2[C@@H](CO)N3CCCCN(S(=O)(=O)Cc4ccccc4)C[C@H]23)cc1,34.2 µM
16,COc1ccc(S(=O)(=O)N2CCCCN3[C@@H](CO)[C@@H](c4ccc(C#CCC(C)C)cc4)[C@@H]3C2)cc1,13.6 µM
17,O=C(NC[C@@H]1N[C@@H](CO)[C@H]1c1ccc(C2=CCCCC2)cc1)c1cccc(F)c1,11.2 µM
18,COc1ccc(C#Cc2ccc([C@@H]3[C@@H](CO)N4CCCCN(Cc5ccccc5F)C[C@@H]34)cc2)cc1,25.4 µM
19,O=C(C[C@H]1CC[C@H]2[C@@H](COC[C@@H](O)CN2C(=O)Nc2cc(Cl)cc(Cl)c2)O1)N1CCOCC1,29.1 µM
20,Cc1ccc(-c2ccc([C@@H]3[C@@H]4CN(Cc5ccccc5F)C[C@H]3N4)cc2)cc1,4.19 µM
21,Cc1ccccc1-c1ccc(C2[C@@H]3CN(C(=O)Cc4ccccc4)C[C@H]2N3)cc1 (stereo partly specified),62.1 µM and 68.3 µM

row,Compound,IC50
1,Fc1ccccc1-c1ccc(C2[C@@H]3CN(Cc4ccccc4)C[C@H]2N3)cc1 (stereo partly specified),4.68 µM and 7.81 µM
2,COc1ccccc1-c1ccc(C2[C@@H]3CN(Cc4cccc(F)c4)C[C@H]2N3)cc1 (stereo partly specified),6.88 µM
3,O=C(C[C@H]1CC[C@@H]2[C@H](COC[C@@H](O)CN2C(=O)Nc2ccc(Cl)c(Cl)c2)O1)NCc1ccncc1,8.71 µM
4,Cc1ccccc1-c1ccc(C2[C@@H]3CN(Cc4cocn4)C[C@H]2N3)cc1 (stereo partly specified),45.5 µM
5,COc1ccc(NC(=O)N2CCCCN3[C@@H](CO)[C@@H](c4ccc(C#Cc5ccccc5)cc4)[C@@H]3C2)cc1,16.2 µM
6,Cc1ccc(-c2ccc([C@H]3[C@@H](CO)N4CCCCN(C(=O)c5ccc(F)cc5)C[C@H]34)cc2)cc1,30.7 µM
7,COc1ccc(C#Cc2ccc([C@H]3[C@H](CO)N4CCCCN(C(=O)Nc5cccc(F)c5)C[C@@H]34)cc2)cc1,20.9 µM
8,COc1cccc(CN2[C@@H]3CNC[C@H]2C3c2ccc(-c3cccc(OC)c3)cc2)c1 (stereo partly specified),13.3 µM
9,Cc1ccccc1-c1ccc([C@@H]2[C@H](CO)N3CCCCN(C(=O)Nc4ccc(F)cc4)C[C@@H]23)cc1,13.9 µM
10,OC[C@@H]1Nc2ccc(-c3ccc(F)cc3)cc2[C@@H]2[C@H]1CCN2Cc1ccc(F)cc1,82.4 µM
11,COc1ccc(NC(=O)N2CCCCN3[C@H](CO)[C@H](c4ccc(C#Cc5ccccc5)cc4)[C@H]3C2)cc1,27.5 µM
12,Cc1ccccc1S(=O)(=O)N1C[C@@H]2N[C@H](C1)C2c1ccc(-c2cccc(C#N)c2)cc1 (stereo partly specified),91.2 µM
13,COc1ccc(C#Cc2ccc([C@H]3[C@H](CO)N4CCCCN(Cc5ccccc5F)C[C@@H]34)cc2)cc1,11 µM
14,Fc1cccc(-c2ccc(C3[C@@H]4CN(Cc5ccccc5F)C[C@H]3N4)cc2)c1 (stereo partly specified),6.44 µM and 6.35 µM
15,N#Cc1ccc(-c2ccc(C3[C@@H]4CN(Cc5ccccc5F)C[C@H]3N4)cc2)cc1 (stereo partly specified),35.8 µM and 26.1 µM
16,O=C(Nc1cccc(F)c1)N1C[C@@H]2N[C@H](C1)C2c1ccc(-c2ccc(F)cc2)cc1 (stereo partly specified),51.8 µM
17,Cc1ccc(-c2ccc(C3[C@@H]4CN(C(=O)Nc5ccc(C(F)(F)F)cc5)C[C@H]3N4)cc2)cc1 (stereo partly specified),4.49 µM and 2.49 µM
18,O=C(Nc1ccc(C(F)(F)F)cc1)N1[C@@H]2CNC[C@H]1C2c1ccc(/C=C/c2ccccc2)cc1 (stereo partly specified),19.5 µM and 4.14 µM
19,O=C(NC[C@H]1N[C@H](CO)[C@@H]1c1ccc(C2=CCCCC2)cc1)c1ccccc1,58.2 µM
20,O=C(C1CCCCC1)N1CC2(C1)[C@H](c1ccccc1)[C@H](CO)N2Cc1ccc(Cl)cc1,33.7 µM

# Source: PubChem BioAssay AID1224920 (Broad Institute, 2016)
